From patent publication US20060173080A1, “Methods of modulating TNF using bupropion” (The Regents of the University of California, priority 2002, published 2006)
Entries after “also recorded” stand apart in the source; their conditions may differ. Structures can show the parent of a compound that is named as a salt.

System: CD patients
Assay: Case reports of Crohn's disease patients on bupropion (CDAI, symptoms, flares)
Assay type: in vivo, human
From the text: Also, multiple toxicity issues are associated with taking medicines such as azathioprine, methotrexate, and steroids over time (Sartor R B. New therapeutic approaches to Crohn;s disease. N Engl J Med 2000;342:1664-1666). In CD, TNF is increased, and TNF is thought to play a central role in CD pathogenesis (Papadakis K A, Targan S R. Role of cytokines in the pathogenesis of inflammatory bowel disease. Annu Rev Med 2000;51:289-298). Monoaminergic and dopaminergic treatments can lower levels of TNF-alpha via increased intracellular adenosine 3′,5′-cyclic monophosphate (cAMP).
person one presented in May of 1999 for treatment of an episode of major depression, superimposed on a chronic mild depressed state (dysthymia). […] They were not usually pain-free during the week, though usually did have several pain-free hours in a given day. […] Inadvertent loss of stool several times a month required daily use of adult protective pads. They were taking fluoxetine 40 mg every day for depression, and mesalamine 500 mg twice a day. CDAI was 202.
After careful review of treatment options, they were started on bupropion (fluoxetine was stopped) with up-titration to 150 mg twice a day. Their abdominal complaints eased over the next months, and the major depression remitted. The baseline dysthymia remained. To better treat the dysthymia, bupropion was raised to 150 mg three times daily with a further lowering of their CDAI. The mesalamine was tapered off. Their CDAI is currently approximately zero. They have one well-formed bowel movement daily and has been without abdominal symptoms or encopresis for 19 months now. They have had no CD flares since starting bupropion. Twice in the last year, they stopped bupropion on their own accord because they felt completely well and felt they didn't need bupropion anymore.
The above-described response to bupropion was consistent with other responses in CD patients. For example, a person with a 20-year history of Crohn's enteritis with multiple surgeries, including 4 small bowel resections. […] The patient was taking fluoxetine to help with pain control. […] Even though they were not able to stop smoking, the patient felt better on bupropion so they decided to continue this medicine with their family doctor's consent. Currently, the patient is taking bupropion 150 mg three times daily. […] Under their doctor's supervision, they have recently tapered their azathioprine from 100 to 50 mg every day without any increase in CDAI.

## CC(NC(C)(C)C)C(=O)c1cccc(Cl)c1 (racemic) [bupropion, (.±.)-1-(3-chlorophenyl)-2-[(1,1-dimethylethyl)amino]-1-propanone hydrochloride]
Case patients, hydrochloride
  CD flares since starting bupropion: no CD flares; also recorded: no CD flares or associated surgeries
Person one on bupropion
  time without abdominal symptoms or encopresis: 19 months
Person one, colonic CD, bupropion 150 mg three times daily, CDAI 202 before bupropion
  CDAI: approximately zero
Person one, symptoms recurred on two self-chosen stops
  abdominal cramping and blood per rectum after restarting bupropion: remitted within weeks
person, Crohn's enteritis, bupropion 150 mg three times daily, CDAI approximately 275 before
  CDAI: about 45
person, bupropion 150 mg three times daily
  Crohn's symptoms: alleviated completely
Two CD cases, over 2 years
  side effects or toxicities: without significant side effects or toxicities
Two cases
  remission of CD: near complete and long-lasting (over 2 years) remissions
